Molecules are shown by their SMILES.

Results on 21 molecules are retold here after US8937091B2 (Japan Science and Technology Agency, priority 2009, dated 2015).

Test [1] concerns SOCE (store operated calcium entry) in CHO cells. Briefly: Assay of SOCE (store operated calcium entry)-inhibiting action. Type of test: cell-based, Chinese hamster. The note with it: Cricetulus griseus, CHO, CHO cells, thapsigargin, read-out: SOCE level (percentage of inhibition); for inhibition at 10 µM: test compound 10 μmol; for inhibition at 30 µM: test compound 30 μmol; for inhibition at 100 µM: test compound 100 μmol. The protocol:
The extracellular fluid (i.e., medium) of cultured Chinese hamster ovary (CHO) cells was replaced by BSS containing no calcium. One minute later, a test compound was added. Two minutes later, 1 μM thapsigargin was added to cause depletion of the intracellular calcium store. Nine minutes later, calcium chloride (final concentration: 2 mM) was added to the extracellular fluid. The SOCE-inhibiting action levels at different compound concentrations after the addition of calcium chloride were determined as the percentage of inhibition (%) by evaluating the influence of the compound on the degree of increase in the intracellular calcium concentration.
(§1) Hereafter, the numerals in parentheses written after the TG level, the SOCE level, and the IICR level correspond to the test compound concentrations. The number following the name of each title compound used in the Examples below represents a compound ID number designated arbitrarily by the present inventors.

In test [2] the test system is IICR (IP3 induced calcium release) in CHO cells. Kind of test: Assay of IICR (IP3 induced calcium release)-inhibiting action. The class given is cell-based, Chinese hamster. Conditions: Cricetulus griseus, CHO, CHO cells, 10 μM ATP, read-out: IICR level (percentage of inhibition); for inhibition at 10 µM: test compound 10 μmol; for inhibition at 30 µM: test compound 30 μmol; for inhibition at 100 µM: test compound 100 μmol. The method, then:
The extracellular fluid (i.e., medium) of cultured CHO cells was replaced by BSS containing calcium. One minute later, a test compound was added. Two minutes later, 10 μM ATP was added. The IICR-inhibiting action levels at different compound concentrations after the addition of ATP were determined as the percentage of inhibition (%) by evaluating the influence of the compound on the degree of increase in the intracellular calcium concentration.
as §1

Regarding `CC(C)N(CCC(=O)c1ccc(Cl)s1)C(C)C` [Example 396, 2-diisopropylaminoethyl-5-chloro-2-thienylketone], in test [1], the inhibition at 10 µM was 20%, the inhibition at 30 µM was determined as 40% and the inhibition at 100 µM turned out to be 50%. Also, in test [2], the inhibition at 10 µM is 2%, the inhibition at 30 µM was 72% and the inhibition at 100 µM worked out at 83%.
Consider `COC(=O)C(CCC(=O)c1ccc2ccccc2c1)C(C)=O` (centres unmarked) [Example 97, 3-acetyl-3-methoxycarbonylpropyl-2-naphthylketone], for which, in test [1], the inhibition at 10 µM is 0%, the inhibition at 30 µM worked out at 10% and the inhibition at 100 µM turned out to be 90%. In addition, in test [2], the inhibition at 10 µM was found to be 0%, the inhibition at 30 µM turned out to be 10% and the inhibition at 100 µM came to 70%.
For `Cn1cccc1C(=O)CCN(CCO)Cc1ccccc1` [Example 164, 2-(N-benzyl-2-hydroxyethyl)aminoethyl-2-(N-methylpyrrolyl)ketone], in test [1], the inhibition at 10 µM is 0%, the inhibition at 30 µM was 0% and the inhibition at 100 µM came to 10%. In test [2], the inhibition at 10 µM came out at 0%, the inhibition at 30 µM was 0% and the inhibition at 100 µM stood at 40%.
Consider `Cc1ccc(C(=O)CCN(CCO)C(C)C)o1` [Example 146, 2-(N-isopropylhydroxyethyl)aminoethyl-5-methyl-2-furylketone], for which, in test [1], the inhibition at 10 µM worked out at 0%, the inhibition at 30 µM came to 0% and the inhibition at 100 µM turned out to be 0%. For the same molecule, in test [2], the inhibition at 10 µM was found to be 50%, the inhibition at 30 µM stood at 30% and the inhibition at 100 µM turned out to be 90%.
Consider `CCN(CCC(=O)c1ccccn1)Cc1ccccc1` [Example 242, 2-(N-benzylethyl)aminoethyl-2-pyridylketone], for which, in test [1], the inhibition at 10 µM stood at 0%, the inhibition at 30 µM was determined as 0% and the inhibition at 100 µM came to 0%. Moreover, in test [2], the inhibition at 10 µM was determined as 30%, the inhibition at 30 µM is 80% and the inhibition at 100 µM came out at 90%.
With `CN(CCO)CCC(=O)c1cccnc1` [Example 259, 2-(N-2-hydroxyethylmethyl)aminoethyl-3-pyridylketone], in test [1], the inhibition at 10 µM amounted to 0%, the inhibition at 30 µM stood at 0% and the inhibition at 100 µM was determined as 0%. Moreover, in test [2], the inhibition at 10 µM is 0%, the inhibition at 30 µM was 0% and the inhibition at 100 µM was 20%.
Turning to `O=C(CCN(CCO)c1ccccc1)c1ccc(Br)s1` [Example 359, 2-(N-hydroxyethyl-N-phenyl)aminoethyl-5-bromo-2-thienylketone], in test [1], the inhibition at 10 µM came out at 0%, the inhibition at 30 µM amounted to 24% and the inhibition at 100 µM was 57%. Also, in test [2], the inhibition at 10 µM amounted to 0%, the inhibition at 30 µM came to 0% and the inhibition at 100 µM turned out to be 70%.
As for `CC(C)N(CCO)CCC(=O)c1ccc2ccccc2c1` [Example 205, 2-(N-hydroxyethylisopropyl)aminoethyl-2-naphthylketone], in test [1], the inhibition at 10 µM is 0%, the inhibition at 30 µM was 0% and the inhibition at 100 µM worked out at 0%. Besides, in test [2], the inhibition at 10 µM came to 0%, the inhibition at 30 µM worked out at 0% and the inhibition at 100 µM came to 0%.
As to `O=C(CCN1CCN(C(=O)c2ccco2)CC1)c1ccc(Oc2ccccc2)cc1` [Example 115, 2-(N-furoylpiperazyl)aminoethyl-4-phenoxyphenylketone], in test [1], the inhibition at 10 µM came to 0%, the inhibition at 30 µM turned out to be 0% and the inhibition at 100 µM worked out at 30%. In test [2], the inhibition at 10 µM was found to be 20%, the inhibition at 30 µM is 20% and the inhibition at 100 µM came to 20%.
Turning to `CC(C)(C)N(CCC(=O)c1sccc1Br)Cc1ccccc1` [Example 407, 2-(N-t-butyl-N-benzyl)aminoethyl-3-bromo-2-thienylketone], in test [1], the inhibition at 10 µM was found to be 20%, the inhibition at 30 µM amounted to 40% and the inhibition at 100 µM worked out at 50%. In test [2], the inhibition at 10 µM came out at 89%, the inhibition at 30 µM turned out to be 83% and the inhibition at 100 µM stood at 77%.
For the molecule `CCCCN(CCO)CCC(=O)c1ccco1` [Example 234, 2-(N-2-hydroxyethylbutyl)aminoethyl-2-furylketone], in test [1], the inhibition at 10 µM amounted to 0%, the inhibition at 30 µM is 0% and the inhibition at 100 µM stood at 10%. Also, in test [2], the inhibition at 10 µM was 0%, the inhibition at 30 µM came out at 70% and the inhibition at 100 µM worked out at 80%.
As to `O=C(CCN(CCO)Cc1ccccc1)c1ccsc1` [Example 184, 2-(N-2-hydroxyethylbenzyl)aminoethyl-3-thiophenylketone], in test [1], the inhibition at 10 µM was determined as 0%, the inhibition at 30 µM worked out at 0% and the inhibition at 100 µM was found to be 0%. In test [2], the inhibition at 10 µM came to 30%, the inhibition at 30 µM amounted to 50% and the inhibition at 100 µM came out at 60%.
Regarding `CC(=O)CCN(Cc1ccccc1)C(C)C` [Example 198, 2-(N-benzylisopropyl)aminoethylmethylketone], in test [1], the inhibition at 10 µM stood at 0%, the inhibition at 30 µM was 0% and the inhibition at 100 µM was found to be 0%. Besides, in test [2], the inhibition at 10 µM came to 0%, the inhibition at 30 µM was found to be 0% and the inhibition at 100 µM is 0%.
In the case of `O=C(CCN(CCO)CCO)c1ccc2ccccc2c1` [Example 147, 2-(N-bishydroxyethyl)aminoethyl-2-naphthylketone], in test [1], the inhibition at 10 µM is 0%, the inhibition at 30 µM worked out at 0% and the inhibition at 100 µM amounted to 0%. For the same molecule, in test [2], the inhibition at 10 µM amounted to 20%, the inhibition at 30 µM was found to be 60% and the inhibition at 100 µM is 90%.
On to `O=C(CCN(CCO)Cc1ccccc1)c1ccccn1` [Example 96], for which, in test [1], the inhibition at 10 µM was found to be 0%, the inhibition at 30 µM is 0% and the inhibition at 100 µM amounted to 0%. In test [2], the inhibition at 10 µM came to 20%, the inhibition at 30 µM came out at 30% and the inhibition at 100 µM worked out at 100%.
Turning to `CCN(CCC(=O)c1cccs1)Cc1ccccc1` [Example 253, 2-(N-benzylethyl)aminoethyl-2-thiophenylketone], in test [1], the inhibition at 10 µM was found to be 0%, the inhibition at 30 µM came out at 10% and the inhibition at 100 µM turned out to be 40%. In addition, in test [2], the inhibition at 10 µM stood at 20%, the inhibition at 30 µM stood at 0% and the inhibition at 100 µM was 20%.
For the molecule `CCN(CCC(=O)c1ccc(Cl)s1)Cc1ccccc1` [Example 278, 2-(N-ethylbenzyl)aminoethyl-5-chloro-2-thienylketone], in test [1], the inhibition at 30 µM amounted to 30% and the inhibition at 100 µM is 40%. Besides, in test [2], the inhibition at 10 µM amounted to 30%, the inhibition at 30 µM was 20% and the inhibition at 100 µM was 60%.
For the molecule `O=C(CCN(c1ccccc1)c1ccccc1)c1ccc2ccccc2c1` [Example 75, 2-(N-diphenyl)aminoethyl-2-naphthylketone], in test [1], the inhibition at 10 µM was found to be 0%, the inhibition at 30 µM stood at 0% and the inhibition at 100 µM amounted to 0%. Also, in test [2], the inhibition at 10 µM stood at 0%, the inhibition at 30 µM was found to be 0% and the inhibition at 100 µM came out at 0%.
Take `Cc1csc(C(=O)CCN(Cc2ccccc2)C(C)C)n1` [Example 263, 2-(N-benzylisopropyl)aminoethyl-4-methyl-2-thiazolylketone]: in test [1], the inhibition at 10 µM is 0%, the inhibition at 30 µM amounted to 0% and the inhibition at 100 µM worked out at 30%. In test [2], the inhibition at 10 µM came to 0%, the inhibition at 30 µM is 0% and the inhibition at 100 µM was found to be 70%.
On to `O=C(CCN(CCO)CCO)c1cnccn1` [Example 102, N,N-bis(2-hydroxyethyl)aminoethyl-2-pyrazylketone], for which, in test [1], the inhibition at 10 µM was 0%, the inhibition at 30 µM was found to be 0% and the inhibition at 100 µM worked out at 0%. Further, in test [2], the inhibition at 10 µM was 0%, the inhibition at 30 µM was found to be 20% and the inhibition at 100 µM was determined as 100%.
Turning to `CN(CCC(=O)c1nccs1)Cc1ccccc1` [Example 258, 2-(N-benzylmethyl)aminoethyl-2-thiazolylketone], in test [1], the inhibition at 10 µM came to 0%, the inhibition at 30 µM is 0% and the inhibition at 100 µM came to 0%. Further, in test [2], the inhibition at 10 µM is 20%, the inhibition at 30 µM amounted to 0% and the inhibition at 100 µM was 20%.

For orientation: inhibition means the change of the read-out against control, counted positive when it falls.
